# According to article PMC8635125, “A Novel Dibenzoxazepine Attenuates Intracellular Salmonella Typhimurium Oxidative Stress Resistance” (Microbiology Spectrum, 2021):
# Where two headings read alike, the source gives them in different places.
# Experiments:
# [1] = tested on: ROS levels in Salmonella-infected RAW264.7 cells; test: Analysis of ROS in macrophages (H2DCFDA); assay type: cell-based, murine; conditions: 1 h; SW14 at concentrations up to 8 μM
# Description: RAW264.7 macrophages were seeded in 96-well black plates and infected by S. Typhimurium ATCC 14028 at an MOI of 25 for 1 h. After infection, the cells were washed, exposed to 100 mg/L gentamicin for 1 h, washed with warm Krebs-Ringer phosphate buffer (KRP buffer; 120 mM NaCl, 5 mM KCl, 1.7 mM KH2PO4, 8.3 mM Na2HPO4, 10 mM glucose, 1 mM CaCl2, 1.5 mM MgCl2, pH 7.3) and stained with H2DCFDA at 37°C with 5% CO2 for 45 min. The cells were then washed with KRP buffer and treated with SW14 or PMA at the desired concentrations in KRP buffer with 10% FBS. Fluorescence signals at 488/525 nm (excitation/emission) were measured using a SpectraMax M5 Microplate Reader (Molecular Devices).
# [2] = tested on: multidrug-resistant S. Typhimurium isolates 0911R and NL08.10 in RAW264.7 cells; test: HCA of intracellular multidrug-resistant isolates in macrophages; assay type: cell-based, Salmonella enterica serovar Typhimurium; conditions: 0911R and NL08.10, gentamicin, 24 h
# Description: (§1) Overnight cultures of RFP-expressing S. Typhimurium were prepared for infection by 1:100 dilution in fresh LB broth and incubation for 2 h at 37°C. The bacteria were then collected by centrifugation at 6,000 × g for 3 min and suspended in phosphate-buffered saline (PBS; pH 7.2) to an optical density of 0.6 at 600 nm, which was equivalent to 5 × 10^8 CFU/mL. RAW264.7 macrophages were seeded in 96-well black clear-bottom plates (Greiner) and incubated for 20 h followed by infection with RFP-expressing S. Typhimurium at a multiplicity of infection (MOI) of 50 for 1 h. […] Afterward, the cells were washed and stained with CellTracker Green (Thermo Fisher Scientific) for 30 min in serum-free DMEM followed by fixation in 3.7% formaldehyde (Sigma-Aldrich) for 20 min and stained with 0.2 mg/L DAPI (4′,6-diamidino-2-phenylindole; AAT Bioquest) for 30 min. Images of individual wells were captured and analyzed using a high-content imaging system (ImageXpress Micro 4; Molecular Devices). The CC50 and 50% effective concentration (EC50) values against intracellular bacteria of each compound were determined using CalcuSyn software (Biosoft).
# [3] = tested on: intracellular S. Typhimurium in RAW264.7 cells; test: CFU assay of bacterial growth in macrophages; assay type: cell-based, Salmonella enterica serovar Typhimurium; conditions: submicromolar concentrations, with gentamicin 20 mg/L, 24 h
# Description: Overnight cultures of S. Typhimurium were diluted 1:100 in fresh LB broth and incubated for 2 h at 37°C. The bacteria were then collected and suspended in PBS to an OD600 of 0.6. RAW264.7 cells seeded in a 6-well plate were infected with S. Typhimurium at an MOI of 25 for 1 h. After infection, the cells were washed, exposed to 100 mg/L gentamicin for 1 h, and treated with SW14 (0.25 to 1 μM) in combination with 20 mg/L gentamicin for 24 h. Then, the infected cells were washed and lysed with 0.1% Triton X-100 in PBS for 10 min at 37°C to release the intracellular bacteria. The cell lysates were serially diluted in PBS, spread on LB agar plates, and incubated at 37°C for 18 h. The bacterial colonies on the plates were enumerated and expressed as CFU.
# [4] = tested on: S. Typhimurium 0911R; test: microbe, parasite or virus in culture; assay type: cell-based, Salmonella Typhimurium; conditions: Salmonella enterica, TYPHIMURIUM
# Description: (§2) The minimal inhibitory concentration (MIC) of each test compound against the individual bacterial strains was determined by the broth microdilution method following the guidelines recommended by the Clinical and Laboratory Standards Institute (CLSI) ([27]).
# [5] = tested on: ciprofloxacin-resistant S. Typhimurium strains SA10 and SB10 in RAW264.7 cells; test: HCA of intracellular ciprofloxacin-resistant strains in macrophages; assay type: cell-based, Salmonella enterica serovar Typhimurium; conditions: SA10 and SB10, gentamicin, 24 h
# Description: as §1
# [6] = tested on: intracellular S. Typhimurium in RAW264.7 macrophages; test: microbe, parasite or virus in culture; assay type: cell-based, Salmonella enterica serovar Typhimurium; conditions: for viability at 0.5 µM: TYPHIMURIUM, RAW264.7, read-out: viability of intracellular Salmonella compared to mock-treated cells
# Description: as §1
# [7] = tested on: S. Typhimurium; test: Bacterial growth assay (OD600); assay type: cell-based, Salmonella enterica serovar Typhimurium; conditions: for concentration inhibiting bacterial growth (OD600): 24 h
# Description: Overnight-grown S. […] The plate was incubated at 37°C, and bacterial growth was monitored by measuring the absorbance at 600 nm with a VersaMax Microplate reader (Molecular Devices) at designated times for 24 h.
# [8] = tested on: S. Typhimurium ATCC 14028; test: Efflux pump activity (Hoechst 33342 accumulation assay); assay type: cell-based, Salmonella enterica serovar Typhimurium; conditions: data not shown in text; Fig. S2
# Description: Figure S2. The accumulation of Hoechst 33342 in S. Typhimurium ATCC 14028 treated
# with escalated concentrations of SW14 for 1 h in the LPM medium was measured using a
# fluorescence microplate reader. The data are presented as the mean ± SD (n = 3 per group).
# ns: non-significant, P > 0.05; ***P < 0.001; ****P < 0.0001.
# Hoechst 33342 accumulation assay
# Overnight-grown S. Typhimurium cultured in LB medium was diluted 1:50 in LPM
# medium and incubated at 37°C for 3 h. The bacterial suspension was adjusted to an OD600
# of 0.1 in fresh LPM medium supplemented with 2.5 µM Hoechst 33342 (Thermo Fisher
# Scientific) followed by treatment of mock (DMSO) or SW14 (0.03125 – 8 µM in DMSO)
# for 1 h. Bacterial cells which were treated with high temperature (90° C) for 10 min (heat-
# killed) rapidly accumulated Hoechst 33342 and served as positive control. Fluorescence
# was monitored on a SpectraMax M5 (Molecular devices) with a 355 nm excitation filter
# and 460 nm emission filter. The percent inhibition was calculated by the equation: 100 ´
# [(SW14-treated – mock) / (Heat-killed – mock)].
# [9] = tested on: S. Typhimurium NL08.10; test: MIC assay (broth microdilution); assay type: cell-based, Salmonella Typhimurium; conditions: Salmonella enterica, TYPHIMURIUM
# Description: as §2
# [10] = tested on: S. Typhimurium SB10; test: MIC assay (broth microdilution); assay type: cell-based, Salmonella Typhimurium; conditions: Salmonella enterica, TYPHIMURIUM
# Description: as §2
# [11] = tested on: S. Typhimurium SA10; test: MIC assay (broth microdilution); assay type: cell-based, Salmonella Typhimurium; conditions: Salmonella enterica, TYPHIMURIUM; Table S1(B), SA10
# Description: as §2
# [12] = tested on: S. Typhimurium ATCC 14028; test: MIC assay (broth microdilution); assay type: cell-based, Salmonella Typhimurium
# Description: as §2
smiles,measurement,setting,value
Clc1ccc2c(c1)C(NCCN1CCNCC1)=Nc1ccccc1O2 [SW14],ROS level (H2DCFDA fluorescence signal) in infected macrophages,[1],did not observe any significant change
same,intracellular replication of MDR S. Typhimurium isolates,[2],remained susceptible
same,viability of intracellular Salmonella (CFU assay),[3],potent suppressive effect
same,MIC,[4],> 64 µg/mL
same,intracellular proliferation of ciprofloxacin-resistant isolates,[5],highly sensitive
same,inhibitory activity of ciprofloxacin and cefixime on intracellular Salmonella in combination with SW14,"[6]; 0.5 μM SW14, 24 h, equal to the antibiotic at 2-fold concentration",enhanced
same,selectivity index (SI; CC50/EC50),[6]; CC50 RAW264.7 / EC50 intracellular Salmonella,47
same,susceptibility of intracellular Salmonella to SW14 after Atg7 knockdown,"[6]; RAW264.7 shATG7 clones vs empty vector, 24 h",more susceptible
same,viability at 0.5 µM,"[6]; Salmonella enterica, 3-MA 10 mM for 1 h, then SW14 0.5 μM for 24 h, HCA",36.8%
same,viability at 0.5 µM,"[6]; Salmonella enterica, SW14 0.5 μM alone, 24 h, HCA",45%
same,EC50,"[6]; Salmonella enterica, RFP-expressing S. Typhimurium in RAW264.7, 24 h, with gentamicin 20 mg/L, HCA, read-out: 50% effective concentration (EC50) against intracellular Salmonella",500 nM
same,suppressive effect on intracellular S. Typhimurium in the presence of ROS scavengers,[6]; with NAC 10 mM or GSH 10 mM,reversed
same,concentration inhibiting bacterial growth (OD600),[7]; Luria-Bertani (LB) medium,> 64 µM
same,growth of Salmonella in LPM medium,"[7]; acidic low-phosphate, low-magnesium (LPM) medium",unable to detect any significant change
same,concentration inhibiting bacterial growth in broth,[7]; broth,> 64 µM
same,concentration inhibiting bacterial growth (OD600),[7]; cell culture medium (DMEM + 10% FBS),> 64 µM
same,efflux pump activity in S. Typhimurium,[8],efflux pump suppressive effect
same,MIC,[9],> 64 µg/mL
same,MIC,[10],> 64 µg/mL
same,MIC,[11],> 64 µg/mL
same,MIC,[12]; Salmonella enterica,> 64 µg/mL
same,MIC,"[12]; Table S1(B), ATCC 14028",> 64 µg/mL
